Assay results taken from US7553837B2, “Phenylazole compounds production process and antioxidants” (Nippon Soda Co., Ltd., priority 2003, dated 2009).
pIC50: −log10 of the molar value.

How the values were obtained:
[1] = Acute oral toxicity, single oral dose, mortality rate after 7 days; conditions: mouse, in vivo, male mice, observed for 7 days
Experimental: A single dose of each of the compounds of the present invention was orally administered to male mice. After observing for 7 days, a mortality rate was determined.

5-lipoxygenase (5-LO) = target: T1, 5-lipoxygenase (5-LO) (Homo sapiens, UniProt P09917); assay: 5-lipoxygenase (5-LO) inhibitory activity, leukotriene B4 production in human peripheral blood mononuclear cells; format: cell-based; conditions: human peripheral blood mononuclear cells, A23187, leukotriene B4 production
T1 construct: human peripheral blood mononuclear cells and each of test compounds dissolved in DMSO (final concentration: 1%) were preincubated; endogenous in cells; host or cells: human peripheral blood mononuclear cells
T1 sequence (P09917 1-674): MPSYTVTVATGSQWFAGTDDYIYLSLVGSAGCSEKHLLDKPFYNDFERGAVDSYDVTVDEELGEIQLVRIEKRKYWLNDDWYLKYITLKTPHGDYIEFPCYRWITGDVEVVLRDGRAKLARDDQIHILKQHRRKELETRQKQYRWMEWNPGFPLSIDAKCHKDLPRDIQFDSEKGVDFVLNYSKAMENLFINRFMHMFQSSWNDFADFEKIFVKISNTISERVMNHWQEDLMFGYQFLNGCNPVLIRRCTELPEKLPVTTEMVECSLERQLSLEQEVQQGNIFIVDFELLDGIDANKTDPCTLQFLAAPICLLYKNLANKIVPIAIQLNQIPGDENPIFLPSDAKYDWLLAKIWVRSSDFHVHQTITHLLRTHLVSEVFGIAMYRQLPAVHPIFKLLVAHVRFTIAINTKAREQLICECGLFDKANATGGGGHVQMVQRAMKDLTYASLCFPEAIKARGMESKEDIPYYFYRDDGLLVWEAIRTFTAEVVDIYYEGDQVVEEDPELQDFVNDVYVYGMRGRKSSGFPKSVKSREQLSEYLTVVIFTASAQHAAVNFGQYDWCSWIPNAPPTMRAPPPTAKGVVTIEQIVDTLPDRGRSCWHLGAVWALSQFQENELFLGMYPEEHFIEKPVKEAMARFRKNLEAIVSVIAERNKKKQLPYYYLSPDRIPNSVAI
Experimental: A 5-LO inhibitory activity was measured by a partially modified process of a process of Carter et al. (Carter G. W, et al, J. Pharmacol. Exp. Ther.: 256, 929-37, 1991). That is, human peripheral blood mononuclear cells and each of test compounds dissolved in DMSO (final concentration: 1%) were preincubated (37° C., 15 minutes) in a Hanks' balanced salt solution and 30 μM A23187 was further added, followed by incubation (37° C., 30 minutes). The amount of leukotriene B4 produced as a result of incubation was determined by enzyme immunoassay and a 50% production inhibitory concentration (μM) against 5-LO of each test compound was calculated.

[2] = tested on: lipid peroxidation in retina homogenate; assay: Retina migration properties: ex vivo retinal lipid peroxidation production inhibition; format: in vivo; conditions: SD male rats, retina taken after 30 minutes
Experimental: Retina migration properties of the compounds of the present invention were evaluated. To SD male rats (one group: 3 rats, 6 weeks old), a solution or suspension prepared by dissolving or suspending each of the test compounds in a 0.1N hydrochloric acid solution or a 1% poly oxy ethylene hydrogenated castor oil (NIKKOL HCO-60) solution was orally administered. After 30 minutes, both eyes were extracted and the retina was separated under ice cooling. A 5% homogenate solution of the retina was prepared in a 0.1M tris-hydrochloric acid buffer (pH 7.4) under ice cooling using a polytron homogenizer for a trace amount (NS-310E: manufactured by Nichion Irika Kiki Co., Ltd.) and, after autoxidation at 37° C. for one hour, the amount of lipid peroxidation produced was determined by a thiobarbituric acid process (MASUGI et al., vitamin 51, 21-29, 1977). A 30% inhibitory dose (ID30) was determined from the inhibition ratio at each dose. As is apparent from the results, the compounds of the present invention have an ex vivo retinal lipid peroxidation production inhibitory action and is also excellent in retina migration properties.

[3] = tested on: lipid peroxidation activity of each tissue homogenate (brain, heart and kidney); assay: Tissue migration properties: ex vivo lipid peroxidation inhibition in brain, heart and kidney homogenates; conditions: SD male rats, 100 mg/kg intraperitoneally, 30 minutes after administration
Experimental: An in vitro lipid peroxidation inhibition of the compounds of the present invention was evaluated by measuring a lipid peroxidation activity in a rat brain homogenate according to a process of Malvy, c., et al., Biochemical and Biophysical Research Communications, 1980, Vol. 95, p. 734-737. That is, a rat brain was extracted and a 5-fold amount of an aqueous phosphoric acid buffered saline solution (pH 7.4) (hereinafter abbreviated to PBS) was added to the brain under ice cooling, followed by homogenization using a Teflon homogenizer and further centrifugation at 10,000 g for 20 minutes to prepare a brain homogenate as a supernatant. To the brain homogenate thus prepared, 500 μM cysteine, 5 μM sulfuric acid monobasic iron and 100 mM KCl were added, followed by incubation at 37° C. for 30 minutes. Malondialdehyde produced by the […] of lipid peroxidation was measured by a thiobarbituric acid process.
Tissue migration properties of the compounds of the present invention were evaluated by measuring an ex vivo lipid peroxidation inhibition. A solution or suspension prepared by dissolving or suspending each of test compounds in an aqueous physiological saline solution or a 1% poly oxy ethylene hydrogenated castor oil (NIKKOL HCO-60, manufactured by Nikko Chemicals Co., Ltd.) physiological saline solution was intraperitoneally administered to SD male rats (one group: 3 rats, 6 weeks old) (available from Nippon SLC Co., Ltd.) at a dose of 100 mg/kg. 30 Minutes after administration, rats were bled to death by cutting the carotid artery and then the brain, heart and kidney were extracted. A lipid peroxidation activity of each tissue homogenate was measured by the process described in Example 18. An inhibition ratio in each tissue of the compounds of the present invention was determined from the amount of lipid peroxidation produced of a control group (physiological saline administration group) and a test compound administration group.

Cc1c(C)c2c(c(C)c1N)CC(C)(CN1CCN(c3cccc(-n4ccnc4)c3)CC1)O2 (stereo not drawn) [Compound B-1-18]
LD50 at 7 days [1]: > 1000 mg/kg
pIC50 (5-lipoxygenase (5-LO)): 5.59
Lipid peroxidation inhibition 30% inhibitory concentration (ID30, oral administration) in ex vivo retina [2]: 12 mg/kg
Ex vivo lipid peroxidation inhibition inhibition ratio (%) Brain ([3]; brain homogenate): 77%
Ex vivo lipid peroxidation inhibition inhibition ratio (%) Heart ([3]; heart homogenate): 88%
Ex vivo lipid peroxidation inhibition inhibition ratio (%) Kidney ([3]; kidney homogenate): 89%
